The source of these data is US9371286B2, “Pharmaceutical composition with enhanced efficacy for inhibiting angiogenesis” (INDUSTRY-ACADEMIC COOPERATION FOUNDATION, YONSEI UNIVERSITY, priority 2011, dated 2016).

The term IC50 denotes the point on the concentration scale where inhibition reaches its midpoint.

The subject of one data set is HIF-1α. The data set can be described thus: HIF-1α stability analysis (western blot, hypoxia). The data set is classed as cell-based. As to conditions: HepG2 cells pretreated 30 minutes, then 1% O2 for 4 hours; for IC50: HIF-1α protein level by western blot, read-out: IC50 values of respective compounds on HIF-1 α; for hypoxia-induced HIF-1α protein accumulation: western blot. The method, then:
HepG2 cells were pretreated with indicated concentrations of the synthetic derivatives for 30 minutes and then exposed to 1% O2 for 4 hours. HIF-1α and tubulin protein levels were analyzed using western blot analysis.
(Immunoblotting shows a protein as a band on a membrane.)

In the next data set the target is T1, UQCRB (Homo sapiens, UniProt P14927).
T1 sequence (P14927 1-111): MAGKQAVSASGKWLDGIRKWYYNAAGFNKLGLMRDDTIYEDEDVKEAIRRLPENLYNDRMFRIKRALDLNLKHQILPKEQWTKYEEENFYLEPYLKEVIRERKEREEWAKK
Put plainly: Surface plasmon resonance (BIAcore) competitive binding analysis. As to conditions: for binding efficiency of UQCRB to biotinylated terpestacin (BT) after co-incubation: competitor 25 μM incubated with purified UQCRB protein 25 μM, BIAcore 2000; for direct binding to UQCRB: concluded from SPR competition with biotinylated terpestacin. On the procedure:
SPR analysis was performed to analyze the binding of the compounds to UQCRB. Control biotin and biotinylated terpestacin (BT) were sequentially immobilized onto the surface of a streptavidin-coated sensor chip and the apparent binding affinities were calculated by subtraction of resonance values of UQCRB binding to control biotin from those of UQCRB binding to BT. For competitive binding analysis, the compounds were each incubated with the UQCRB protein, and then the complexes were injected into flow cells of the sensor chip.
In order to further investigate the binding of A1893 and A1938 to UQCRB, the present inventors performed SPR (BIAcore) analysis. Control biotin and biotinylated terpestacin were sequentially immobilized onto the surface of a streptavidin-coated sensor chip. Competitive binding molecules (A1893 and A1938, 25 μM) were incubated with the purified UQCRB protein (25 μM) in the buffer (10 mM HEPES, 150 mM NaCl, 3 mM EDTA (pH 7.4)), and then UQCRB-competitive binding molecule complexes were injected onto the sensor chip at a flow rate of 30 μl/min. The surface of the sensor chip was regenerated by the injection of 5 μl of the regeneration buffer (50 mM NaOH). Molecular interaction analysis was performed using the BIAcore 2000 system (BIAcore AB), and the apparent binding affinities were calculated by the subtraction of resonance values of UQCRB binding to control biotin from those of UQCRB binding to biotinylated terpestacin. For competitive binding analysis, terpestacin and the compounds of the present invention were each incubated with the UQCRB protein, and then the complexes were injected into flow cells of the sensor chip.
A general note: In SPR one partner is held on a chip, and binding of the other changes the refractive index at the surface.

For data set [1], the system named is HUVECs. The data set can be described thus: Invasiveness analysis (Transwell, VEGF-induced). As to conditions: VEGF 30 ng/ml, 2.5 μM and 5 μM, 18 hours. It counts as cell-based, human. The method, then: (§1) Serum-starved HUVECs were treated with VEGF (30 ng/mL) with or without A1893 or A1938 and then the in vitro angiogenesis analysis was performed.
Serum-starved human umbilical vein endothelial cells (HUVECs) were treated with VEGF with or without A1893 or A1938, and then the in vitro angiogenesis analysis was performed. The invasiveness of HUVECs was investigated using the Transwell chamber system with 8.0-μm pore-sized polycarbonate filter (Corning Costar). First, a lower portion of the filter was coated with 10 μl gelatin (10 mg/ml) for 1 hour, and an upper portion of the filter was coated with 10 μl Matrigel (3 mg/ml) for 2 hours. Then, 600 μl of the EBM-2 medium was put into the Transwell, and then, VEGF (30 ng/ml) and the compound of the present invention DPCN (2.5 μM and 5 μM) were added thereto. The coated filter was placed on the Transwell, and HUVECs (1×10^5 cells/well) were inoculated on the upper portion of the filter, following by incubation for 18 hours. After that, the cells were fixed with 70% methanol, and then stained with hematoxylin/eosin. Then, the total number of invaded cells was measured using an optical microscope at 100× magnification.

In data set [2] the test system is HUVECs. Put plainly: Tube formation analysis on Matrigel. It counts as cell-based, human. Particulars: VEGF 30 ng/ml, 2.5 μM and 5 μM, 8 hours. The method, then:
as §1
Tube formation analysis was performed using HUVECs growing on Matrigel (Collaborative Biomedical Products). The 48-well plate was coated with 150 μl Matrigel, followed by polymerization at 37 for 2 hours. Then, human umbilical vein endothelial cells (HUVECs, 1×10^5 cells/well) were inoculated on Matrigel, and then VEGF (30 ng/ml) and the compound of the present invention DPCN (2.5 μM and 5 μM) were added thereto. The morphological change of cells was observed while the cells were incubated at room temperature for 8 hours. Tube formation was quantified by measuring the number of connected cells in randomly selected fields and dividing the measured number by the total number of cells in the same field.

Another data set has as its system HepG2 cells. The data set can be described thus: Mitochondrial ROS generation analysis (DCF fluorescence). The data set is classed as cell-based. Particulars: HepG2 cells pretreated 30 minutes, then 1% O2 for 10 minutes. The method, then:
Intracellular ROS levels were determined by the DCF fluorescence. HepG2 cells were pretreated with the compounds for 30 minutes, and then exposed to 1% O2 for 10 minutes. A1893 and A1938 suppressed hypoxia-induced mitochondrial ROS generation, which confirmed that A1893 and A1938 modulate the O2 sensing function of UQCRB.
The increase in ROS generation due to complex III during hypoxia triggers HIF-1α stabilization, and consequently mediates the expression of its target genes such as VEGF. UQCRB, which is an important component in mitochondrial complex III, acts as an O2 sensor and mediates hypoxia-induced tumor angiogenesis. In order to determine whether anti-angiogenic activity of A1893 and A1938 is associated with the modulation of the O2 sensing function of UQCRB, the present inventors investigated the mitochondrial ROS-mediated hypoxic signal transmission procedure of A1893 and A1938. HepG2 liver cancer cells were pretreated with A1893 and A1938 for 30 minutes, and then exposed to 1% O2 for 10 minutes. Intracellular ROS levels were determined by the DCF fluorescence. A1893 and A1938 suppressed the hypoxia-induced mitochondrial ROS generation in HepG2 cells in a dose-dependent manner (FIG. 5).

The test system of data set [3] is HUVECs. Put plainly: Viability of endothelial cells. The data set is classed as cell-based, human.
Setting [4] is: stated with the invasion analysis.
Setting [5] is: stated with the tube formation analysis.

Turning to `O=[N+]([O-])c1cc(O)ccc1NS(=O)(=O)c1ccc(-c2ccccc2)cc1` [A2038, biphenyl-4-sulfonic acid (2-nitro-4-hydroxy-phenyl)-benzene-sulfonamide], in the data set on HIF-1α, the half-inhibitory concentration (IC50) was determined as 5 µM. The same measure, in the same setting: the same measure for `CCc1ccc(S(=O)(=O)Nc2cccc3ccc(O)cc23)cc1` [A1891, 4-ethyl-N-(7-hydroxy-naphthalen-1-yl)-benzene-sulfonamide]: 10 µM; for `CC(C)(C)c1ccc(S(=O)(=O)Nc2ccc(O)c(Cl)c2)cc1` [A2003, 4-tert-butyl-N-(3-chloro-4-hydroxy-phenyl)-benznene-sulfonamide]: 10 µM. Same read-out and setting: the same measure for `Cc1cc(NS(=O)(=O)c2ccc(-c3ccccc3)cc2)ccc1O` [A2040, biphenyl-4-sulfonic acid (4-hydroxy-3-methyl-phenyl)-amide]: 5 µM. Same read-out and setting: with `O=S(=O)(Nc1cccc(O)c1)c1ccc(-c2ccccc2)cc1` [A2033, biphenyl-4-sulfonic acid (3-hydroxy-phenyl)-amide] the figure was 5 µM; with `CC(C)(C)c1ccc(S(=O)(=O)Nc2ccc(O)cc2F)cc1` [A2007, 4-tert-butyl-N-(2-fluoro-4-hydroxy-phenyl)-benzene-sulfonamide], 10 µM; with `O=S(=O)(Nc1ccc(O)cc1F)c1ccc(-c2ccccc2)cc1` [A2008, biphenyl-4-sulfonic acid (2-fluoro-4-hydroxy-phenyl)-amide], 5 µM. Regarding `CC(C)(C)c1ccc(S(=O)(=O)Nc2ccc(O)c(F)c2)cc1` [A2010, 4-tert-butyl-N-(3-fluoro-4-hydroxy-phenyl)-benzene-sulfonamide], the IC50 with HIF-1α was 10 µM.

In the case of `O=S(=O)(Nc1ccc(O)cc1Cl)c1ccc(-c2ccccc2)cc1` [A2001, biphenyl-4-sulfonic acid (2-chloro-4-hydroxy-phenyl)-amide], the concentration for half-maximal inhibition (IC50) in the data set on HIF-1α is 5 µM. Same read-out and setting: the same measure for `Cc1cc(NS(=O)(=O)c2ccc(-c3ccccc3)cc2)ccc1O` [A2041, biphenyl-4-sulfonic acid (4-hydrox-3-methyl-phenyl)-amide]: 10 µM. On the same count and under the same terms, the same measure for `O=S(=O)(NCCc1ccc(O)cc1)c1ccc(-c2ccccc2)cc1` [A2060, biphenyl-4-sulfonic acid [2-(4-hydroxy-phenyl)-ethyl]-amide]: 10 µM. `CC(C)(C)c1ccc(S(=O)(=O)Nc2ccc(O)cc2)cc1` [A1893, 4-tert-butyl-N-(4-hydroxy-phenyl)-benzene-sulfonamide]: in the data set on HIF-1α, the IC50 was determined as 5 µM and the “hypoxia-induced HIF-1α protein accumulation” value was “greatly reduced”. Moreover, at UQCRB, the “binding efficiency of UQCRB to biotinylated terpestacin (BT) after co-incubation” value (“binding efficiency of UQCRB” below) is “significantly decreased” and the “direct binding to UQCRB” value is given as “directly bind to UQCRB”. The “VEGF-induced invasion of HUVECs” value in the data set with HUVECs [1] is reported as “inhibited VEGF-induced invasion”. Moreover, in the data set on HUVECs [2], the “tube formation of HUVECs” value is listed as “inhibited the tube formation”. For the same molecule, the “hypoxia-induced mitochondrial ROS generation” value in the data set with HepG2 cells is “suppressed”. Moreover, in the data set on HUVECs [3] (setting [4]), the “viability of endothelial cells” value is given as “without affecting viability”. For the same molecule, in the data set with HUVECs [3] (setting [5]), the “viability of endothelial cells” value is recorded as “without affecting viability”.

As for `O=S(=O)(Nc1cc(Cl)c(O)c(Cl)c1)c1ccc2ccccc2c1` [A2044, naphthalene-3-sulfonic acid (3,5-dichloro-4-hydroxy-phenyl)-amide], the concentration for half-maximal inhibition (IC50) with HIF-1α was 10 µM. Consider `O=S(=O)(Nc1ccc(O)cc1)c1ccc(-c2ccccc2)cc1` [A1938, biphenyl-4-sulfonic acid (4-hydroxy-phenyl)-amide], for which, in the data set with HIF-1α, the half-maximal inhibitory concentration (IC50) is 5 µM and the “hypoxia-induced HIF-1α protein accumulation” value was “greatly reduced”. Moreover, on UQCRB, the “binding efficiency of UQCRB” value is on record as “significantly decreased” and the “direct binding to UQCRB” value was “directly bind to UQCRB”. Further, the “VEGF-induced invasion of HUVECs” value with HUVECs [1] is given as “inhibited VEGF-induced invasion”. In addition, the “tube formation of HUVECs” value in the data set on HUVECs [2] is “inhibited the tube formation”. Also, the “hypoxia-induced mitochondrial ROS generation” value in the data set with HepG2 cells was “suppressed”. Moreover, in the data set on HUVECs [3] (setting [4]), the “viability of endothelial cells” value is on record as “without affecting viability”. Moreover, the “viability of endothelial cells” value in the data set on HUVECs [3] (setting [5]) is recorded as “without affecting viability”. Turning to `CC(C)(C)c1ccc(S(=O)(=O)Nc2ccc(O)cc2Cl)cc1` [A2000, 4-tert-butyl-N-(2-chloro-4-hydroxy-phenyl)-benzene-sulfonamide], the concentration for half-maximal inhibition (IC50) in the data set on HIF-1α turned out to be 10 µM. The same measure, in the same setting: with `O=S(=O)(Nc1cc(Cl)c(O)c(Cl)c1)c1ccc(-c2ccccc2)cc1` [A2043, biphenyl-4-sulfonic acid (3,5-dichloro-4-hydroxy-phenyl)-amide] the figure was 10 µM; with `CC(C)(C)c1ccc(S(=O)(=O)Nc2cc(Cl)c(O)c(Cl)c2)cc1` [A2006, 4-tert-butyl-N-(3,5-dichloro-4-hydroxy-phenyl)-benzene-sulfonamide], 10 µM. Regarding `C/C1=C\C[C@]2(C)C(=O)C(O)=C([C@H](C)CO)[C@H]2C/C=C(\C)[C@@H](O)CC/C(C)=C/CC1` [terpestacin, reference compound], the “binding efficiency of UQCRB” value on UQCRB was “significantly decreased”. As to `O=S(=O)(NC1CCC(CCO)CC1)c1ccc2ccccc2c1` (stereo not drawn) [A2069, naphthalene-2-sulfonic acid [4-(2-hydroxy-ethyl)-cyclohenxyl]-amide], in the data set on HIF-1α, the IC50 is 10 µM.

Regarding `CC(C)(C)c1ccc(S(=O)(=O)Nc2ccc(O)cc2[N+](=O)[O-])cc1` [A2037, 4-tert-butyl-N-(2-nitro-4-hydroxy-phenyl)-benzene-sulfonamide], the IC50 in the data set with HIF-1α was found to be 10 µM.
